Where “and” joins values, the source holds several entries; their conditions need not be identical. Equal values may be shown once. Residues, ends and D or L forms follow the SMILES beside them. *: point of attachment. Cbz = O=C(OCc1ccccc1)*
Columns and labels:
[1] = test system: normal breast epithelial cell (MCF-10A); experiment: Cell viability (calcein-AM / ethidium homodimer-1), MCF-10A; settings: MCF-10A, 24 h
Description: (§1) Strains of cervical cancer cell (HeLa), kidney cancer cell (Caki-1), brain tumor cell (T98G), breast cancer cell (MDA-MB 435S), and colon cancer cell (DLD-1), multiple myeloma cell (RPMI-8226), and a strain of normal breast epithelial cell (MCF-10A) were available from ATCC (American Type Culture Collection, USA). The strains of cervical cancer cell (HeLa), kidney cancer cell (Caki-1), brain tumor cell (T98G), breast cancer cell (MDA-MB 435S), and colon cancer cell (DLD-1) were cultured by using a DMEM medium including 10% fetal bovine serum (FBS), 2 mM of L-glutamin, 100 i.u./ml of penicillin, and […] of streptomycin for the culture and maintenance; multiple myeloma cell (RPMI-8226) was cultured by using a RPMI1640 medium including 10% FBS, 100 i.u./ml of penicillin, and […] of streptomycin; and the strain of normal breast epithelial cell (MCF-10A) was cultured by using a mammary epithelial growth medium (MEGM) including a bovine pituitary extract, insulin, human epidermal growth factor, hydrocortisone, and antibiotics, and the culture conditions included 37° C. and 5% CO2 in an incubator.
(§2) Then, the cells were stained by using 2 μM calcein-AM and 4 μM ethidium homodimer-1, and cell viability was measured by using a fluorescent microscope (Axiovert 200M, available from Carl Zeiss, Jena, Germany).

[2] = test system: kidney cancer cell (Caki-1); experiment: Cell viability (calcein-AM / ethidium homodimer-1), Caki-1
Description: as §1, §2

[3] = test system: breast cancer cell (MDA-MB 435S); experiment: Cell viability (calcein-AM / ethidium homodimer-1), MDA-MB 435S; settings: 24 h
Description: as §1, §2

[4] = test system: brain tumor cell (T98G); experiment: Cell viability (calcein-AM / ethidium homodimer-1), T98G; settings: 24 h
Description: as §1, §2

[5] = test system: cervical cancer cell (HeLa); experiment: Cell viability (calcein-AM / ethidium homodimer-1), HeLa; settings: 24 h
Description: as §1, §2

[6] = test system: colon cancer cell (DLD-1); experiment: Cell viability (calcein-AM / ethidium homodimer-1), DLD-1
Description: as §1, §2

[7] = test system: multiple myeloma cell (RPMI-8226); experiment: Cell viability (calcein-AM / ethidium homodimer-1), RPMI-8226; settings: for Cell viability: RPMI-8226, 24 h
Description: as §1, §2

[8] = Cell viability (calcein-AM / ethidium homodimer-1), MCF-10A; settings: human
Description: as §1, §2

[9] = Homo sapiens, CAKI-1, 24 h, read-out: Cell viability
[10] = Homo sapiens, CAKI-1, 24 h, read-out: cell viability decreased
[11] = Homo sapiens, MDA-MB-435S, read-out: Cell viability
[12] = Homo sapiens, read-out: cell viability decreased
[13] = Homo sapiens, DLD-1, 24 h, read-out: Cell viability
[14] = Homo sapiens, RPMI-8226, 24 h, read-out: Cell viability
[15] = Homo sapiens, read-out: Cell viability

CC[C@H](C)[C@H](NC(=O)[C@H]([C@@H](C)CC)N(C)C(C)=O)C(=O)N[C@H](C(=O)N[C@@H](CC(C)C)C(=O)[C@@]1(C)CO1)[C@@H](C)O [Epoxomicin]
Cell viability ([1]; epoxomicin 10 nM alone): 97.62 | Cell viability ([1]; epoxomicin 20 nM alone): 94.36 | Cell viability ([2]; Caki-1, epoxomicin 20 nM alone, 24 h): 100 | cell viability decreased ([2]; Caki-1, epoxomicin alone 40 nM, 24 h): about 35% | cancer cell toxicity ([2]; Caki-1, epoxomicin alone up to 20 nM, 24 h): did not induce cancer cell toxicity | cell viability decreased ([3]; MDA-MB 435S, epoxomicin alone 15 nM): about 18% | Cell viability ([4]; epoxomicin 5 nM alone): 95.66 | Cell viability ([4]; epoxomicin 10 nM alone): 79.79 | Cell viability ([5]; epoxomicin 10 nM alone): 100 | Cell viability ([5]; epoxomicin 20 nM alone): 87.73 | cell viability decreased ([5]; epoxomicin alone 20 nM): about 12% | Cell viability ([6]; DLD-1, epoxomicin 20 nM alone, 24 h): 99.70 | Cell viability ([7]; epoxomicin 2.5 nM alone): 100 | Cell viability ([7]; epoxomicin 5 nM alone): 92.72

CN(C)C(=O)C(CCN1CCC(O)(c2ccc(Cl)cc2)CC1)(c1ccccc1)c1ccccc1 [Loperamide]
Cell viability ([1]; loperamide 10 μM alone): 95.21 and 100.29 and 95.11 | Cell viability ([1]; loperamide 20 μM alone): 99.25 and 94.65 and 100.37 | viability at 24 h, 10 μM ([8]; Cell viability, MCF-10A, loperamide 10 μM alone, 24 h): 97.7% | viability at 24 h, 20 μM ([8]; Cell viability, MCF-10A, loperamide 20 μM alone, 24 h): 94.6% | viability at 20 µM [2, 9]: 100% | viability at 40 µM [2, 9]: 65.1% | cytotoxicity at 40 µM [2, 10]: ~35% | viability at 10 µM [3, 11]: 100% | viability at 20 µM [3, 11]: 78% | cytotoxicity at 20 µM ([3]; Homo sapiens, MDA-MB-435S, read-out: cell viability decreased, MDA-MB 435S, loperamide alone 20 μM): ~22% | viability at 10 µM ([4]; Homo sapiens, read-out: Cell viability, T98G, loperamide 10 μM alone): 100% | viability at 20 µM ([4]; Homo sapiens, read-out: Cell viability, T98G, loperamide 20 μM alone): 99% | cytotoxicity at 20 µM [4, 12]: ~10% | Cell viability ([4]; loperamide 10 μM alone): 94.43 | cancer cell toxicity ([4]; loperamide alone up to 20 μM): did not exhibit significant cancer cell toxicity | viability at 20 µM ([5]; Homo sapiens, read-out: Cell viability, HeLa, loperamide 20 μM alone): 99.7% | viability at 40 µM ([5]; Homo sapiens, read-out: Cell viability, HeLa, loperamide 40 μM alone): 75.1% | cytotoxicity at 40 µM [5, 12]: ~25% | Cell viability ([5]; loperamide 20 μM alone): 99.81 | viability at 10 µM [6, 13]: 100% | viability at 20 µM [6, 13]: 100% | viability at 5 µM [7, 14]: 98.6% | viability at 10 µM [7, 14]: 89.4%

CC(C)C[C@@H](C=O)NC(=O)[C@H](CC(C)C)NC(=O)[C@H](CC(C)C)NC(=O)OCc1ccccc1 [MG132] (Cbz-Leu-Leu-Leu-aldehyde)
viability at 24 h, 0.25 μM [8]: 95.2% | viability at 24 h, 0.5 μM [8]: 92.9% | viability at 0.5 µM [2, 9]: 100% | viability at 1 µM [2, 9]: 89.3% | cytotoxicity at 1 µM [2, 10]: ~10% | viability at 0.25 µM [3, 11]: 100% | viability at 0.5 µM [3, 11]: 93% | cancer cell toxicity ([3]; MDA-MB 435S, MG132 alone up to 0.5 μM): did not exhibit significant cancer cell toxicity | viability at 0.125 µM [4, 15]: 99.7% | viability at 0.25 µM [4, 15]: 96.5% | cancer cell toxicity ([4]; MG132 up to 0.25 μM): did not exhibit significant cancer cell toxicity | viability at 0.5 µM [5, 15]: 100% | viability at 1 µM [5, 15]: 100% | cell toxicity ([5]; MG132 alone up to 1 μM): did not exhibit cell toxicity | viability at 0.5 µM [6, 13]: 91.7% | viability at 1 µM [6, 13]: 81.3% | cytotoxicity at 1 µM ([6]; Homo sapiens, DLD-1, 24 h, read-out: cell viability decreased): ~19% | viability at 0.1 µM [7, 14]: 100% | viability at 0.2 µM [7, 14]: 99.1%

CC(C)C[C@H](NC(=O)CNC(=O)c1cc(Cl)ccc1Cl)B1OC(=O)C(CC(=O)O)(CC(=O)O)O1 [MLN9708]
viability at 24 h, 50 nM [8]: 98% | viability at 24 h, 100 nM [8]: 92.3% | viability at 0.1 µM [2, 9]: 83.3% | viability at 0.2 µM [2, 9]: 75.7% | cytotoxicity at 0.2 µM [2, 10]: ~25% | viability at 0.1 µM [3, 11]: 97.5% | viability at 0.2 µM [3, 11]: 93.3% | cytotoxicity at 0.2 µM ([3]; Homo sapiens, MDA-MB-435S, read-out: cell viability decreased): ~10% | viability at 0.05 µM [4, 15]: 92% | viability at 0.1 µM [4, 15]: 84.7% | viability at 0.1 µM [5, 15]: 100% | viability at 0.2 µM [5, 15]: 97.8% | viability at 0.1 µM [6, 13]: 98.2% | viability at 0.2 µM [6, 13]: 95.2% | viability at 0.02 µM [7, 14]: 100% | viability at 0.04 µM [7, 14]: 80.8%
